Data: patent publication US10344019B2 (priority 2010, dated 2019)

Assays:
Type in all cases: cell-based
[1] = test system: HCV 1a RLuc cells (dicistronic genotype 1a H77 replicon, RLuc reporter); test: microbe, parasite or virus in culture; settings: Hepatitis C virus, genotype 1a H77 RLuc replicon; read-out: 1a
Outline: (§1)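 Replicons used: genotype 1b Con1, 1a H77, 2a JFH-1, and a 2a JFH-1 chimera with J6-strain NS5A (M31 present), all dicistronic.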

[2] = test system: HCV 1b RLuc cells (dicistronic genotype 1b Con1 replicon, RLuc reporter); test: microbe, parasite or virus in culture; settings: Hepatitis C virus, read-out: 1b (nM)
Outline: as §1

[3] = test system: HCV 2a JFH-1 Rluc cells (dicistronic genotype 2a JFH-1 replicon, RLuc reporter); test: microbe, parasite or virus in culture; settings: Hepatitis C virus, genotype 2a JFH-1 RLuc replicon; read-out: 2a JFH
Outline: as §1

[4] = test system: HCV 2b Rluc cells (NS5A chimeric genotype 2a JFH-1 replicon with genotype 2b MD2b-1 NS5A gene, M31 present); test: microbe, parasite or virus in culture; settings: Hepatitis C virus, read-out: 2b
Outline: (§2)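 Replicon cells stably carrying the listed RLuc-encoding dicistronic replicons were seeded and treated with DMSO serial dilutions of compound (10 mM stocks) diluted into culture medium. After 72 h, cells were lysed and Renilla luciferase activity measured. EC50 was derived by non-linear regression.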

[5] = test system: HCV 4a Rluc cells (NS5A chimeric genotype 1b Con1 replicon with genotype 4a NS5A gene); test: microbe, parasite or virus in culture; settings: Hepatitis C virus, read-out: 4a
Outline: as §2

[6] = test system: HCV 2a Rluc cells (NS5A chimeric genotype 2a JFH-1 replicon with genotype 2a J6 strain NS5A gene, M31 present); test: HCV replicon reporter assay, genotype 2a J6 (M31 present); settings: Hepatitis C virus, read-out: 2a J6
Method: Evaluation of cell-based anti-HCV activity: Antiviral potency (EC50) was determined using a Renilla luciferase (RLuc)-based HCV replicon reporter assay. To perform the assay for genotype 1 and 2a JFH-1, HCV 1b RLuc cells (harboring a dicistronic genotype 1b Con1 replicon that encodes a RLuc reporter), or HCV 1a RLuc cells (harboring a dicistronic genotype 1a H77 replicon that encodes a RLuc reporter), or HCV 2a JFH-1 Rluc cells (harboring a dicistronic genotype 2a JFH-1 replicon that encodes a RLuc reporter) were dispensed into 384-well plates. To perform the assay for genotype 2a (with M31 present) or 2b, HCV 2a Rluc or 2b Rluc cells (both with M31 present) harboring a dicistronic NS5A chimeric genotype 2a JFH-1 replicon that encodes a RLuc reporter and either genotype 2a J6 strain NS5A gene or genotype 2b MD2b-1 NS5A gene (based on Los Alamos HCV database isolates, both with M31 present) respectively, were dispensed into 384-well plates. To perform the assay for genotype 3 and 4, HCV 3a RLuc or 4a Rluc cells harboring a dicistronic NS5A chimeric genotype 1b Con1 replicon that encodes a RLuc reporter and either a consensus genotype 3a NS5A gene or genotype 4a NS5A gene (based on Los Alamos HCV database isolates) respectively, were dispensed into 384-well plates. Compounds were re-suspended in DMSO at a concentration of 10 mM and serially diluted in DMSO either manually or using an automated pipeting instrument. Serially diluted compounds were mixed with cell culture media and added to the seeded cells. […] 72 hours later, cells were lysed and Renilla luciferase activity quantified as recommended by the manufacturer (Promega-Madison, Wis.). Non-linear regression was performed to calculate EC50 values.

[7] = test system: HCV 3a RLuc cells (NS5A chimeric genotype 1b Con1 replicon with consensus genotype 3a NS5A gene); test: microbe, parasite or virus in culture; settings: Hepatitis C virus, read-out: 3a, genotype 3a NS5A chimeric replicon
Outline: as §2

Row | SMILES | EC50 [1] [nM] | EC50 [2] [nM] | EC50 [3] [nM] | EC50 [4] [nM] | EC50 [5] [nM] | EC50 [6] [nM] | EC50 [7] [nM]
1 | COC[C@H]1C[C@@H](c2ncc(-c3ccc(-c4ccc(-c5cnc([C@@H]6C[C@H]7C[C@H]7N6C(=O)[C@H](NC(=O)C6CC6)c6ccccc6)[nH]5)cc4)cc3)[nH]2)N(C(=O)[C@@H](NC(=O)OC)C(C)C)C1 [Example 519] | 0.001 to 0.999 | 0.01 | 0.001 to 0.999 | 0.001 to 0.999 | 0.001 to 0.99 | 0.001 to 0.999 | 
2 | COC(=O)N[C@H](C(=O)N1CCC[C@H]1c1ncc(-c2cc3c4c(c2)OCc2cc(-c5cnc([C@@H]6CCCN6C(=O)[C@H](NC(=O)C6CC6)c6ccccc6)[nH]5)cc(c2-4)OC3)[nH]1)C(C)C [Example 520] | 0.001 to 0.999 | 0.033 | 0.001 to 0.999 | 0.001 to 0.999 | 0.001 to 0.99 | 0.001 to 0.999 | 
3 | COC(=O)N[C@H](C(=O)N1CCC[C@H]1c1ncc(-c2cc3c4c(c2)OCc2cc(-c5cnc([C@@H]6CCCN6C(=O)[C@H](NC(=O)C6CCC6)c6ccccc6)[nH]5)cc(c2-4)OC3)[nH]1)C(C)C [Example 521] | 0.001 to 0.999 | 0.028 | 0.001 to 0.999 | 0.001 to 0.999 | 0.001 to 0.99 | 0.001 to 0.999 | 
4 | COC(=O)N[C@H](C(=O)N1CCC[C@H]1c1ncc(-c2cc3c4c(c2)OCc2cc(-c5cnc([C@@H]6CCCN6C(=O)[C@H](NC(=O)c6ccccn6)c6ccccc6)[nH]5)cc(c2-4)OC3)[nH]1)C(C)C [Example 522] | 0.001 to 0.999 | 0.023 | 0.001 to 0.999 | 0.001 to 0.999 | 0.001 to 0.99 | > 44 | 
5 | COC[C@H]1C[C@@H](c2nc3ccc4cc(-c5ccc(-c6[nH]c([C@@H]7CCCN7C(=O)[C@@H](NC(=O)OC)C(C)C)nc6C)cc5)ccc4c3[nH]2)N(C(=O)[C@@H](NC(=O)OC)C(C)C)C1 [Example 524] | 0.001 to 0.999 | 0.02 | 0.001 to 0.999 | 1 to 44 | 0.001 to 0.99 | > 44 | 
6 | COC(=O)N[C@H](C(=O)N1CCC[C@H]1c1nc2ccc3cc(-c4ccc5c(ccc6nc([C@@H]7C[C@H](COC(F)F)CN7C(=O)[C@H](NC(=O)OC)c7ccccc7)[nH]c65)c4)ccc3c2[nH]1)C(C)C [Example 528] | 0.001 to 0.999 | 0.01 | 0.001 to 0.999 | 0.001 to 0.999 | 0.001 to 0.99 | 0.001 to 0.999 | 
7 | COC[C@H]1C[C@@H](c2nc3ccc4cc5c(cc4c3[nH]2)OCc2cc(-c3ccc4nc([C@@H]6CCCN6C(=O)[C@@H](NC(=O)OC)C(C)C)[nH]c4c3)ccc2-5)N(C(=O)[C@H](NC(=O)OC)c2ccccc2)C1 [Example 556] | 0.001 to 0.999 |  | 0.001 to 0.999 | > 44 | 0.001 to 0.99 | > 44 | 
8 | COC(=O)N[C@H](C(=O)N1[C@@H](C)CC[C@H]1c1ncc(-c2ccc3c(c2)COc2cc4c(ccc5nc([C@@H]6CCCN6C(=O)[C@H](N)c6ccccc6)[nH]c54)cc2-3)[nH]1)C(C)C [Example 604] | 0.001 to 0.999 | 0.02 | 0.001 to 0.999 | 0.001 to 0.999 |  | 0.001 to 0.999 | 
9 | CC[C@H](C)[C@H](NC(=O)OC)C(=O)N1C[C@@H](COC)C[C@H]1c1ncc(-c2ccc3c(c2)COc2cc4c(ccc5nc([C@@H]6CC[C@H](C)N6C(=O)[C@@H](NC(=O)OC)C(C)C)[nH]c54)cc2-3)[nH]1 [Example 619] | 0.001 to 0.999 | 0.007 | 0.001 to 0.999 | 0.001 to 0.999 |  | 0.001 to 0.999 | 
10 | COC[C@H]1C[C@@H](c2nc3ccc4cc5c(cc4c3[nH]2)OCc2cc(-c3cnc([C@@H]4C[C@H](C)CN4C(=O)C(NC(=O)OC)[C@H](C)OC)[nH]3)ccc2-5)N(C(=O)[C@@H](NC(=O)OC)[C@H](C)OC)C1 (stereo partly shown) [Example 620] | 0.001 to 0.999 | 0.081 | 0.001 to 0.999 | 0.001 to 0.999 |  | 0.001 to 0.999 | 
11 | COC(=O)NC(C(=O)N1C[C@@H](C)C[C@H]1c1nc2ccc3cc4c(cc3c2[nH]1)OCc1cc(-c2cnc([C@@H]3CC[C@H](C)N3C(=O)[C@@H](NC(=O)OC)C(C)C)[nH]2)ccc1-4)[C@H](C)OC (stereo partly shown) [Example 621] | 0.001 to 0.999 | 0.013 | 0.001 to 0.999 | 0.001 to 0.999 |  | 0.001 to 0.999 | 
12 | CC[C@H](C)[C@H](NC(=O)OC)C(=O)N1C[C@@H](COC)C[C@H]1c1nc2ccc3cc4c(cc3c2[nH]1)OCc1cc(-c2cnc([C@@H]3CC[C@H](C)N3C(=O)[C@@H](NC(=O)OC)C(C)C)[nH]2)ccc1-4 [Example 623] | 0.001 to 0.999 | 0.006 | 0.001 to 0.999 | 0.001 to 0.999 |  | 0.001 to 0.999 | 
13 | COC(=O)N[C@H](C(=O)N1C[C@@H](COC(F)F)C[C@H]1c1nc2ccc3cc4c(cc3c2[nH]1)OCc1cc(-c2cnc([C@@H]3CC[C@H](C)N3C(=O)[C@@H](NC(=O)OC)C(C)C)[nH]2)ccc1-4)C(C)C [Example 631] | 0.001 to 0.999 | 0.006 | 0.001 to 0.999 | 0.001 to 0.999 |  | 0.001 to 0.999 | > 5
14 | COC(=O)N[C@H](C(=O)N1C[C@@H](COC(F)F)C[C@H]1c1ncc(-c2ccc3c(c2)COc2cc4c(ccc5nc([C@@H]6CC[C@H](C)N6C(=O)[C@@H](NC(=O)OC)C(C)C)[nH]c54)cc2-3)[nH]1)C(C)C [Example 632] | 0.001 to 0.999 | 0.008 | 0.001 to 0.999 | 0.001 to 0.999 |  | 0.001 to 0.999 | 
15 | COC[C@H]1C[C@@H](c2ncc(-c3ccc4c(c3)COc3cc5c(ccc6nc([C@@H]7C[C@H](COC(F)F)CN7C(=O)[C@@H](NC(=O)OC)C(C)C)[nH]c65)cc3-4)[nH]2)N(C(=O)[C@@H](NC(=O)OC)C(C)C)C1 [Example 634] | 0.001 to 0.999 | 0.015 | 0.001 to 0.999 | 0.001 to 0.999 |  | 0.001 to 0.999 | 
16 | CC[C@H](C)[C@H](NC(=O)OC)C(=O)N1[C@@H](C)CC[C@H]1c1ncc(-c2ccc3c(c2)COc2cc4c(ccc5nc([C@@H]6C[C@H](COC)CN6C(=O)[C@@H](NC(=O)OC)C(C)C)[nH]c54)cc2-3)[nH]1 [Example 638] | 0.001 to 0.999 | 0.009 | 0.001 to 0.999 | 0.001 to 0.999 |  | 0.001 to 0.999 | 
17 | CCC(C)[C@H](NC(=O)OC)C(=O)N1C[C@@H](COC)C[C@H]1c1nc2ccc3cc4c(cc3c2[nH]1)OCc1cc(-c2cnc([C@@H]3C[C@H](C)CN3C(=O)[C@@H](NC(=O)OC)[C@@H](C)CC)[nH]2)ccc1-4 (stereo partly shown) [Example 640] | 0.001 to 0.999 | 0.015 | 0.001 to 0.999 | 0.001 to 0.999 |  | 0.001 to 0.999 | 
18 | CC[C@H](C)[C@H](NC(=O)OC)C(=O)N1C[C@@H](C)C[C@H]1c1ncc(-c2ccc3c(c2)COc2cc4c(ccc5nc([C@@H]6C[C@H](COC)CN6C(=O)[C@@H](NC(=O)OC)[C@@H](C)OC)[nH]c54)cc2-3)[nH]1 [Example 641] | 0.001 to 0.999 | 0.03 | 0.001 to 0.999 | 0.001 to 0.999 |  | 0.001 to 0.999 | 
19 | CC[C@H](C)[C@H](NC(=O)OC)C(=O)N1C[C@@H](C)C[C@H]1c1ncc(-c2ccc3c(c2)COc2cc4c(ccc5nc([C@@H]6C[C@H](COC)CN6C(=O)[C@@H](NC(=O)OC)C(C)C)[nH]c54)cc2-3)[nH]1 [Example 642] | 0.001 to 0.999 | 0.014 | 0.001 to 0.999 | 0.001 to 0.999 |  | 0.001 to 0.999 | 
20 | CC[C@@H](C)[C@H](NC(=O)OC)C(=O)N1C[C@@H](COC)C[C@H]1c1nc2ccc3cc4c(cc3c2[nH]1)OCc1cc(-c2cnc([C@@H]3CC[C@H](C)N3C(=O)[C@@H](NC(=O)OC)[C@H](C)CC)[nH]2)ccc1-4 [Example 643] | 0.001 to 0.999 |  | 0.001 to 0.999 | 0.001 to 0.999 |  | 0.001 to 0.999 | 
